As a reminder, the IC50 is the concentration that gives 50% inhibition.

This passage reports IC50 results from patent US8309584B2, “Sulfur containing pyrazole-heterocycle derivatives as cannabinoid CB1 receptor antagonists” (Green Cross Corporation, priority 2008, dated 2012).

In the first assay the target is T1, rat CB-1 receptor (Rattus norvegicus, UniProt P20272).
T1 construct: The tissue obtained from the brain of SD rats was homogenized; from tissue; host or cells: SD rat brain membrane homogenate
T1 sequence (P20272 whole entry): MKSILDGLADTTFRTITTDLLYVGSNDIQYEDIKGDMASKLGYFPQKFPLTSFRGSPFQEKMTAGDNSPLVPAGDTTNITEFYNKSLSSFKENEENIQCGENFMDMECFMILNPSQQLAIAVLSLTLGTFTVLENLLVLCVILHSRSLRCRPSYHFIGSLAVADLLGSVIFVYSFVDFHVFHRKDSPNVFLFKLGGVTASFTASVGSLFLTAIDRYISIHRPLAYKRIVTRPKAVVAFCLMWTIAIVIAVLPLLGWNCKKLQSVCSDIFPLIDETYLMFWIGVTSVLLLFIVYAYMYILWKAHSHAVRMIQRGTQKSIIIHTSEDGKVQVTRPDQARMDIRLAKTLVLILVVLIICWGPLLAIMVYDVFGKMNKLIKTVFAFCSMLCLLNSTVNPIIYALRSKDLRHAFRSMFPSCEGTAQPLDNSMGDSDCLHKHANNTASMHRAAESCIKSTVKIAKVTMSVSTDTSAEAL
Put plainly: rat cannabinoid-1 receptor (CB1R) binding affinity assay.
Settings: not given
As to the method: The tissue obtained from the brain of SD rats was homogenized with a Dounce homogenate system in TME(50 mM Tris, 3 mM MgCl2 and 1 mM EDTA, pH 7.4) at 4° C., and the homogenate was centrifuged at 48,000 g for 30 min. at 4° C. The pellet was resuspended in 5 ml of TME and the suspension was divided into aliquots and stored at −70° C. until its use in the following assay.
The tissue concentrations were determined by Bradford protein analysis, and 148 μl of brain tissue of the required concentration was added to the plate. The plate was covered and placed in a 30° C. incubator for 60 min, and then transformed on GF/B filtermat pretreated in polyethylenimine (PEI) using a cell harvester. Each filter was washed five times and dried at 60° C. for 1 hr. Then, the degree of radioactivity retained by the filter was measured using Wallac Microbeta™ (PerkinElmer Life Sciences, Inc., Massachusetts, U.S.A.) and the activity of the compound for inhibiting CB1 receptor was determined therefrom.
`CSc1c(-c2nnc(C3(c4ccc(Cl)cc4)CC3)s2)nn(-c2ccc(Cl)cc2Cl)c1-c1ccc(Cl)cc1` [Example 24, 2-(5-(4-chlorophenyl)-1-(2,4-dichlorophenyl)-4-(methylthio)-1H-pyrazol-3-yl)-5-(1-(4-chlorophenyl)cyclopropyl)-1,3,4-thiadiazole] gave a concentration for half-maximal inhibition (IC50) of 6.66 nM.

For `CSc1c(-c2nnc(C3(C(F)(F)F)CC3)o2)nn(-c2ccccc2Cl)c1-c1ccc(Br)cc1` [Example 14, 2-(5-(4-bromophenyl)-1-(2-chlorophenyl)-4-(methylthio)-1H-pyrazol-3-yl)-5-(1-(trifluoromethyl)cyclopropyl)-1,3,4-oxadiazole], the half-inhibitory concentration (IC50) was determined as 4.11 nM.

`CSc1c(-c2nnc(C3(C(F)(F)F)CCC3)s2)nn(-c2ccccc2Cl)c1-c1ccc(Br)cc1` [Example 35, 2-(5-(4-bromophenyl)-1-(2-chlorophenyl)-4-(methylthio)-1H-pyrazol-3-yl)-5-(1-(trifluoromethyl)cyclobutyl)-1,3,4-thiadiazole] registered an IC50 of 7.77 nM.

The same assay, now with this note: [3H]CP-55940 radioligand, SD rat brain tissue homogenate, 30° C., 60 min; read-out: IC50.
Take `CSc1c(-c2nnc(C3(C(F)(F)F)CCC3)o2)nn(-c2ccccc2Cl)c1-c1ccc(Cl)cc1` [Example 7, 2-(1-(2-chlorophenyl)-5-(4-chlorophenyl)-4-(methylthio)-1H-pyrazol-3-yl)-5-(1-(trifluoromethyl)cyclobutyl)-1,3,4-oxadiazole]: the IC50 was 4.21 nM.

As to `CS(=O)(=O)c1c(-c2nnc(C3(C(F)(F)F)CCC3)o2)nn(-c2ccc(Cl)cc2Cl)c1-c1ccc(Br)cc1` [Example 90, 2-(5-(4-bromophenyl)-1-(2,4-dichlorophenyl)-4-(methylsulfonyl)-1H-pyrazol-3-yl)-5-(1-(trifluoromethyl)cyclobutyl)-1,3,4-oxadiazole], the IC50 came to 7.34 nM.

`CSc1c(-c2nnc(C3(C(F)(F)F)CC3)s2)nn(-c2ccc(Cl)cc2Cl)c1-c1ccc(Cl)cc1` [Example 22, 2-(5-(4-chlorophenyl)-1-(2,4-dichlorophenyl)-4-(methylthio)-1H-pyrazol-3-yl)-5-(1-(trifluoromethyl)cyclopropyl)-1,3,4-thiadiazole]: the IC50 came to 10.9 nM.

Regarding `CC(C)(C)c1nnc(-c2nn(-c3ccc(Cl)cc3Cl)c(-c3ccc(Cl)cc3)c2S(C)(=O)=O)o1` [Example 80, 2-tert-butyl-5-(5-(4-chlorophenyl)-1-(2,4-dichlorophenyl)-4-(methylsulfonyl)-1H-pyrazol-3-yl)-1,3,4-oxadiazole], the IC50 worked out at 15.2 nM.

`C[S+]([O-])c1c(-c2nnc(C(C)(C)C)s2)nn(-c2ccc(Cl)cc2Cl)c1-c1ccc(Cl)cc1` (stereo not drawn) [Example 60, 2-tert-butyl-5-(5-(4-chlorophenyl)-1-(2,4-dichlorophenyl)-4-(methylsulfinyl)-1H-pyrazol-3-yl)-1,3,4-thiadiazole]: the concentration for half-maximal inhibition (IC50) stood at 19.1 nM.

Turning to `CS(=O)(=O)c1c(-c2nnc(C3(C(F)(F)F)CCC3)s2)nn(-c2ccccc2Cl)c1-c1ccc(Cl)cc1` [Example 106, 2-(1-(2-chlorophenyl)-5-(4-chlorophenyl)-4-(methylsulfonyl)-1H-pyrazol-3-yl)-5-(1-(trifluoromethyl)cyclobutyl)-1,3,4-thiadiazole], the IC50 was found to be 0.87 nM.

As for `CS(=O)(=O)c1c(-c2nnc(C3(C(F)(F)F)CCC3)s2)nn(-c2ccc(Cl)cc2Cl)c1-c1ccc(Br)cc1` [Example 110, 2-(5-(4-bromophenyl)-1-(2,4-dichlorophenyl)-4-(methylsulfonyl)-1H-pyrazol-3-yl)-5-(1-(trifluoromethyl)cyclobutyl)-1,3,4-thiadiazole], the IC50 stood at 3.64 nM.

Turning to `C[S+]([O-])c1c(-c2nnc(C3(C(F)(F)F)CCC3)o2)nn(-c2ccc(Cl)cc2Cl)c1-c1ccc(Cl)cc1` (stereo not drawn) [Example 43, 2-(5-(4-chlorophenyl)-1-(2,4-dichlorophenyl)-4-(methylsulfinyl)-1H-pyrazol-3-yl)-5-(1-(trifluoromethyl)cyclobutyl)-1,3,4-oxadiazole], the IC50 was determined as 8.92 nM.

For `CSc1c(-c2nnc(C3(C(F)(F)F)CC3)s2)nn(-c2ccccc2Cl)c1-c1ccc(Br)cc1` [Example 34, 2-(5-(4-bromophenyl)-1-(2-chlorophenyl)-4-(methylthio)-1H-pyrazol-3-yl)-5-(1-(trifluoromethyl)cyclopropyl)-1,3,4-thiadiazole], the IC50 worked out at 17.1 nM.

`CSc1c(-c2nnc(C3(C(F)(F)F)CC3)o2)nn(-c2ccccc2Cl)c1-c1ccc(Cl)cc1` [Example 6, 2-(1-(2-chlorophenyl)-5-(4-chlorophenyl)-4-(methylthio)-1H-pyrazol-3-yl)-5-(1-(trifluoromethyl)cyclopropyl)-1,3,4-oxadiazole]: the 50% inhibitory concentration (IC50) came out at 8.3 nM.

In the case of `CSc1c(-c2nnc(C3(C(F)(F)F)CC3)o2)nn(-c2ccc(Cl)cc2Cl)c1-c1ccc(Br)cc1` [Example 10, 2-(5-(4-bromophenyl)-1-(2,4-dichlorophenyl)-4-(methylthio)-1H-pyrazol-3-yl)-5-(1-(trifluoromethyl)cyclopropyl)-1,3,4-oxadiazole], the IC50 was 7.95 nM.

As to `CSc1c(-c2nnc(C(C)(C)C)o2)nn(-c2ccc(Cl)cc2Cl)c1-c1ccc(Br)cc1` [Example 9, 2-(5-(4-bromophenyl)-1-(2,4-dichlorophenyl)-4-(methylthio)-1H-pyrazol-3-yl)-5-tert-butyl-1,3,4-oxadiazole], the IC50 came to 5.5 nM.

`CS(=O)(=O)c1c(-c2nnc(C3(C(F)(F)F)CC3)s2)nn(-c2ccc(Cl)cc2Cl)c1-c1ccc(Cl)cc1` [Example 101, 2-(5-(4-chlorophenyl)-1-(2,4-dichlorophenyl)-4-(methylsulfonyl)-1H-pyrazol-3-yl)-5-(1-(trifluoromethyl)cyclopropyl)-1,3,4-thiadiazole]: the concentration for half-maximal inhibition (IC50) amounted to 22 nM.

With `CS(=O)(=O)c1c(-c2nnc(C3(C(F)(F)F)CCC3)s2)nn(-c2ccccc2Cl)c1-c1ccc(Br)cc1` [Example 114, 2-(5-(4-bromophenyl)-1-(2-chlorophenyl)-4-(methylsulfonyl)-1H-pyrazol-3-yl)-5-(1-(trifluoromethyl)cyclobutyl)-1,3,4-thiadiazole], the half-inhibitory concentration (IC50) is 1.08 nM.

With `CS(=O)(=O)c1c(-c2nnc(C3(C(F)(F)F)CCC3)s2)nn(-c2ccc(Cl)cc2Cl)c1-c1ccc(Cl)cc1` [Example 102, 2-(5-(4-chlorophenyl)-1-(2,4-dichlorophenyl)-4-(methylsulfonyl)-1H-pyrazol-3-yl)-5-(1-(trifluoromethyl)cyclobutyl)-1,3,4-thiadiazole], the IC50 stood at 3.74 nM.

For `CSc1c(-c2nnc(C(C)(C)C)o2)nn(-c2ccc(Cl)cc2Cl)c1-c1ccc(Cl)cc1` [Example 1, 2-tert-butyl-5-(5-(4-chlorophenyl)-1-(2,4-dichlorophenyl)-4-(methylthio)-1H-pyrazol-3-yl)-1,3,4-oxadiazole], the 50% inhibitory concentration (IC50) worked out at 6.26 nM.

Consider `CSc1c(-c2nnc(C3(C(F)(F)F)CC3)o2)nn(-c2ccc(Cl)cc2Cl)c1-c1ccc(Cl)cc1` [Example 2, 2-(5-(4-chlorophenyl)-1-(2,4-dichlorophenyl)-4-(methylthio)-1H-pyrazol-3-yl)-5-(1-(trifluoromethyl)cyclopropyl)-1,3,4-oxadiazole], for which the IC50 amounted to 6.63 nM.

`CSc1c(-c2nnc(C(C)(C)C)s2)nn(-c2ccccc2Cl)c1-c1ccc(Br)cc1` [Example 33, 2-(5-(4-bromophenyl)-1-(2-chlorophenyl)-4-(methylthio)-1H-pyrazol-3-yl)-5-tert-butyl-1,3,4-thiadiazole]: the IC50 is 5.7 nM.

Take `CS(=O)(=O)c1c(-c2nnc(C3(c4ccc(Cl)cc4)CC3)s2)nn(-c2ccc(Cl)cc2Cl)c1-c1ccc(Cl)cc1` [Example 103, 2-(5-(4-chlorophenyl)-1-(2,4-dichlorophenyl)-4-(methylsulfonyl)-1H-pyrazol-3-yl)-5-(1-(4-chlorophenyl)cyclopropyl)-1,3,4-thiadiazole]: the IC50 came to 4.34 nM.

For `CS(=O)(=O)c1c(-c2nnc(C3(C(F)(F)F)CC3)s2)nn(-c2ccccc2Cl)c1-c1ccc(Br)cc1` [Example 113, 2-(5-(4-bromophenyl)-1-(2-chlorophenyl)-4-(methylsulfonyl)-1H-pyrazol-3-yl)-5-(1-(trifluoromethyl)cyclopropyl)-1,3,4-thiadiazole], the half-inhibitory concentration (IC50) came to 2.51 nM.

Take `CS(=O)(=O)c1c(-c2nnc(C3(c4ccc(Cl)cc4)CC3)o2)nn(-c2ccc(Cl)cc2Cl)c1-c1ccc(Cl)cc1` [Example 83, 2-(5-(4-chlorophenyl)-1-(2,4-dichlorophenyl)-4-(methylsulfonyl)-1H-pyrazol-3-yl)-5-(1-(4-chlorophenyl)cyclopropyl)-1,3,4-oxadiazole]: the half-inhibitory concentration (IC50) is 22 nM.

Consider `C[S+]([O-])c1c(-c2nnc(C3(C(F)(F)F)CCC3)s2)nn(-c2ccccc2Cl)c1-c1ccc(Cl)cc1` (stereo not drawn) [Example 66, 2-(1-(2-chlorophenyl)-5-(4-chlorophenyl)-4-(methylsulfinyl)-1H-pyrazol-3-yl)-5-(1-(trifluoromethyl)cyclobutyl)-1,3,4-thiadiazole], for which the 50% inhibitory concentration (IC50) was 3.4 nM.

For the compound `CSc1c(-c2nnc(C3(c4ccc(Cl)cc4)CC3)o2)nn(-c2ccc(Cl)cc2Cl)c1-c1ccc(Cl)cc1` [Example 4, 2-(5-(4-chlorophenyl)-1-(2,4-dichlorophenyl)-4-(methylthio)-1H-pyrazol-3-yl)-5-(1-(4-chlorophenyl)cyclopropyl)-1,3,4-oxadiazole], the half-inhibitory concentration (IC50) was 5.26 nM.

With `CSc1c(-c2nnc(C3(c4ccc(Cl)cc4)CC3)o2)nn(-c2ccccc2Cl)c1-c1ccc(Cl)cc1` [Example 8, 2-(1-(2-chlorophenyl)-5-(4-chlorophenyl)-4-(methylthio)-1H-pyrazol-3-yl)-5-(1-(4-chlorophenyl)cyclopropyl)-1,3,4-oxadiazole], the IC50 came to 4.61 nM.
